Patent publication US7803801B2, “Aminopyridine compounds having Syk inhibitory activity” (Japan Tobacco, Inc., priority 2005, dated 2010)
Counter-ions that a name gives are not always drawn. Like-named read-outs stand apart in the source and are kept apart here.

Columns and labels:
[1] = biological target: GST-Syk Full Protein (human) (Homo sapiens, UniProt P43405); assay: Syk kinase inhibition test (HTRF method); assay type: biochemical
In short: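 Human GST-Syk full-length (6.4 nM) phosphorylated biotin-EDPDYEWPSA-NH2 (250 nM) with 100 μM ATP in HEPES pH 7.0/MgCl2 buffer, 2% DMSO, 30 min at room temperature. EDTA stop, then HTRF detection (streptavidin-XL665, Eu anti-phosphotyrosine) after 1 h; 665/620 ratio read.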

[2] = test system: cultured human mast cells; assay: Degranulation inhibition test using cultured human mast cells (IgE cross-linking, β-Hexosaminidase release); assay type: cell-based; conditions: Mast cell, cultured human mast cells, read-out: human degranulation ave. IC50
Description: Degranulation Inhibition Test Using Cultured Human Mast Cells
(1) Separation of Hematopoietic Stem Cells;
After 10 to 60 mL of umbilical cord blood collected with heparin was diluted with an equivalent amount of buffer (0.5% BSA, 2 mM EDTA/PBS-), it was superposed on Ficoll-Paque (Amersham Pharmacia Biotech) (Ficoll/Blood (1:2)) and mononuclear leukocyte fraction was collected by centrifuging it at 400 G (1350 rpm) 4° C. for 30 minutes. After centrifugal washing (1500 rpm, 5 min, 4° C.×3) with buffer, the number of cells was counted and 0.1 mL of CD34 Progenitor Cell Isolation Kit (Miltenyi Biotec), Reagent A1 (Fc blocking) was added for 1×10^8 cells. After agitation, 0.1 mL of Reagent A2 (CD34 antibody-hapten) was added (final volume 0.5 mL/1×10^8 cells) and incubated at 9° C. for further 15 minutes after agitation. After centrifugal washing (1500 rpm, 5 min, 4° C.×3), it was resuspeded in a buffer (0.4 mL) and 0.1 mL of Reagent B (anti hapten antibody-microbeads) was added and agitated (final volume 0.5 mL/1×10^8 cells) and incubated at 9° C. for further 15 minutes. After centrifugal washing (1500 rpm, 5 min, 4° C.×2), it was resuspeded in a buffer (0.5 mL) and loaded on CS column (Miltenyi Biotec) set in MACS (MAgnetic Cell Sorting system; Miltenyi Biotec, Daiichi Pure Chemicals) and washed with 30 mL of buffer to remove CD34^− cells. The column was separated from MACS and eluted with 30 mL of buffer and CD34^+ cells bound to the column were collected and used as a hematopoietic stem cell population.
(2) Acquisition of Human Mast Cells by Long-Term Culturing of Hematopoietic Stem Cells;
The CD34^+ cells separated in (1) were resuspended in Iscove's Modified Dulbecco's Medium (IMDM, Gibco) containing human (rh)SCF (1 μg/mL, Peprotech), rhIL-6 (0.5 μg/mL, Peprotech), rhIL-3 (10 ng/mL, Peprotech), 1% Insulin-Transferrin (Gibco), 5×10^−5M 2-ME (Gibco), 0.1% BSA (Sigma) in a density of 1×10^6 cells/ml and disseminated on 24-well culture plate with a dose of 0.1 mL/well and 0.9 ml of IMDM (Methocult SF^BIT StemCell technology) containing 0.9% methyl cellulose was added and culturing was started. The above culture medium (excluding methyl cellulose) was added in a week and after that 100 μL/well of the above culture medium (further excluding IL-3) was added at an interval of every once a week so that cells were diluted to maintain 10^5 cells/mL/well order and cultured more than about 8 weeks and thereby human culture mast cells were obtained.
(3) Expression Enhancement of FcεRI and Inhibition Test IgE Cross-Linking Stimulating Degranulation;
rhIL-4 (final concentration 1 ng/mL, R & D) and Homo sapiens(h) IgE (final concentration 0.5 μg/mL, CHEMICON) were added to the obtained human culture mast cells, and they were incubated for 5 days to enhance the expression of FcεRI. After incubation, cells were collected and, after centrifugal washing (IMDM), they were disseminated on 96-well culture plate in 5×10^4 cells/80 μL/well.
10 μL of a compound 10-fold diluted with IMDM after dissolved in DMSO (DMSO final concentration 0.1%) was added and reacted at 37° C. for 10 minutes. Further, 10 μL of anti-hIgE Ab (CHEMICON) adjusted to 100 μg/mL (final concentration 10 μg/mL) was added and degranulation was caused by being stimulated at 37° C. for 30 minutes. After centrifugation, 50 μL/well of the supernatant was collected and stored at −40° C. untill the quantity of degranulation was measured. The measurement of quantity of degranulation was performed using enzymatic activity of β-Hexosaminidase contained in the granulates as an index. That is, an equivalent amount of p-nitrophenyl-N-acetyl-β-D-glucosaminide (1 mM) (containing 0.1% Triton X-100) which is a substrate of β-Hexosaminidase was added to 50 μL of the culture filtrate, and after reacted at 37° C. for 2 hours, the reaction was terminated by using 100 μL of Carbonate buffer (0.1M, pH 10). […]

[3] = Tables 1-x, compounds A, read-out: sykHTRF ave IC50
[4] = HTRF, 100 μM ATP, 30 min room temperature, average, read-out: sykHTRF ave IC50
[5] = anti-hIgE stimulation, β-Hexosaminidase index, average

IC50 [1, 3] [nM]	IC50 ([2]; Tables 1-x, compounds A) [nM]	IC50 [1, 4] [nM]	IC50 [2, 5] [nM]	SMILES	also measured
< 100	> 1000	–	–	Cc1ccnc(Nc2cccc(-c3cnc(COc4ccc(C(=O)O)cc4)s3)n2)c1 [Compound A-605, 4-{5-[6-(4-methylpyridin-2-ylamino)pyridin-2-yl]thiazol-2-ylmethoxy}benzoic acid]	–
–	–	100 to 1000	100 to 1000	Cc1ccnc(Nc2cccc(-c3cnc([C@H](C)NC(=O)N(C)C)s3)n2)c1 [Compound A-56]	–
–	–	–	–	Cc1ccnc(Nc2cccc(-c3ccc(C(=O)NCCC(=O)O)s3)n2)c1 [Compound B-98]	IC50 ([1]; Tables 2-x, thiophene compounds B, read-out: sykHTRK ave IC50): 100 to 1000 nM; IC50 ([2]; Tables 2-x, thiophene compounds B): > 1000 nM
< 100	100 to 1000	–	–	CC1(c2ccnc(Nc3cccc(-c4cnc(N5CCC[C@@H](C(N)=O)C5)s4)n3)c2)OCCO1 [Compound A-565, (R)-1-(5-{6-[4-(2-methyl-[1,3]dioxolan-2-yl)pyridin-2-ylamino]pyridin-2-yl}thiazol-2-yl)piperidine-3-carboxamide]	–
< 100	100 to 1000	–	–	O=C(O)CC1CCN(c2ncc(-c3cccc(Nc4cc(Cl)ccn4)n3)s2)CC1 [Compound A-620, (1-{5-[6-(4-chloropyridin-2-ylamino)pyridin-2-yl]thiazol-2-yl}piperidin-4-yl)acetic acid dihydrochloride]	–
< 100	100 to 1000	–	–	Cc1ccnc(Nc2cccc(-c3cnc(N(C)C4CCC(C(=O)O)CC4)s3)n2)c1 (centres unmarked) [Compound A-444, 4-(methyl-{5-[6-(4-methylpyridin-2-ylamino)pyridin-2-yl]thiazol-2-yl}amino)cyclohexanecarboxylic acid]	–
–	–	< 100	100 to 1000	Cc1ccnc(Nc2cccc(-c3cnc([C@H]4CC[C@H](C(=O)NCCO)CC4)s3)n2)c1 [Compound A-267, N-(2-hydroxyethyl)-trans-4-{5-[6-(4-methylpyridin-2-ylamino)pyridin-2-yl]thiazol-2-yl}cyclohexanecarboxamide]	–
> 1000	> 1000	–	–	Cc1ccnc(Nc2cccc(-c3cnc(COCC(=O)N4CCN(C)C(=O)C4)s3)n2)c1 [Compound A-388]	–
100 to 1000	100 to 1000	–	–	Cc1ccnc(Nc2cccc(-c3cnc([C@@H]4CN(C)C(=O)O4)s3)n2)c1 [Compound A-405]	–
< 100	100 to 1000	–	–	Cc1ccnc(Nc2cccc(-c3cnc(N(C)Cc4ccc(C(=O)O)cc4)s3)n2)c1 [Compound A-574, 4-[(N-methyl-N-{5-[6-(4-methylpyridin-2-ylamino)pyridin-2-yl]thiazol-2-yl}amino)methyl]benzoic acid dihydrochloride]	–
–	–	100 to 1000	100 to 1000	Cc1ccnc(Nc2cccc(-c3cnc(CN4CCN(C(=O)CO)CC4)s3)n2)c1 [Compound A-246]	–
–	–	100 to 1000	100 to 1000	COC(=O)N(C)Cc1ncc(-c2cccc(Nc3cc(C)ccn3)n2)s1 [Compound A-356]	–
–	–	100 to 1000	100 to 1000	Cc1ccnc(Nc2cccc(-c3cnc([C@H]4CC[C@H](C(=O)N(C)C)CC4)s3)n2)c1 [Compound A-264]	–
> 1000	> 1000	–	–	Cc1ccnc(Nc2cccc(-c3cnc([C@@H]4COC(=O)N4CC(=O)N(C)C)s3)n2)c1 [Compound A-408]	–
–	–	100 to 1000	100 to 1000	Cc1ccnc(Nc2cccc(-c3cnc(CN4CCC(NC(=O)CO)CC4)s3)n2)c1 [Compound A-247]	–
< 100	100 to 1000	–	–	Cc1ccnc(Nc2cccc(-c3cnc(N4CCC(C)(C(N)=O)CC4)s3)n2)c1 [Compound A-500, 4-methyl-1-{5-[6-(4-methylpyridin-2-ylamino)pyridin-2-yl]thiazol-2-yl}piperidine-4-carboxamide]	–
–	–	< 100	100 to 1000	Cc1ccnc(Nc2cccc(-c3cnc([C@H]4CC[C@H](CO)CC4)s3)n2)c1 [Compound A-211, (trans-4-{5-[6-(4-methylpyridin-2-ylamino)pyridin-2-yl]thiazol-2-yl}cyclohexyl)methanol]	–
< 100	> 1000	–	–	CNC(=O)CN1CCN(c2ncc(-c3cccc(Nc4cc(C)ccn4)n3)s2)CC1=O [Compound A-466, N-methyl-2-(4-{5-[6-(4-methylpyridin-2-ylamino)pyridin-2-yl]thiazol-2-yl}-2-oxopiperazin-1-yl)acetamide]	–
< 100	100 to 1000	–	–	CC1(c2ccnc(Nc3cccc(-c4cnc(N5CCC(CC(=O)O)CC5)s4)n3)c2)OCCO1 [Compound A-572, [1-(5-{6-[4-(2-methyl-[1,3]dioxolan-2-yl)pyridin-2-ylamino]pyridin-2-yl}thiazol-2-yl)piperidin-4-yl]acetic acid dihydrochloride]	–
–	–	100 to 1000	100 to 1000	Cc1ccnc(Nc2cccc(-c3cnc([C@H]4CC[C@H](C(=O)N5CCC[C@H]5CO)CC4)s3)n2)c1 [Compound A-285]	–
< 100	100 to 1000	–	–	Cc1ccnc(Nc2cccc(-c3cnc(N4CCN(C(=O)N(C)C)CC4)s3)n2)c1 [Compound A-441, N,N-dimethyl-4-{5-[6-(4-methylpyridin-2-ylamino)pyridin-2-yl]thiazol-2-yl}piperazine-1-carboxamide]	–
–	–	< 100	> 1000	Cc1ccnc(Nc2cccc(-c3cnc(CCC4CCN(C(=O)C5CCNCC5)CC4)s3)n2)c1 [Compound A-295, [4-(2-{5-[6-(4-methylpyridin-2-ylamino)pyridin-2-yl]thiazol-2-yl}ethyl)piperidin-1-yl]-(piperidin-4-yl)metanone]	–
–	–	100 to 1000	> 1000	Cc1ccnc(Nc2cccc(-c3cnc([C@H]4CC[C@H](CN5CCCC(O)C5)CC4)s3)n2)c1 (some centres unmarked) [Compound A-315]	–
–	–	< 100	> 1000	Cc1ccnc(Nc2cccc(-c3cnc([C@H]4CC[C@H](C(=O)N5CCNCC5)CC4)s3)n2)c1 [Compound A-176, (trans-4-{5-[6-(4-methylpyridin-2-ylamino)pyridin-2-yl]thiazol-2-yl}cyclohexyl)-(piperazin-1-yl)methanone]	–
< 100	100 to 1000	–	–	COc1ccnc(Nc2cccc(-c3cnc(N4CCN(C(C)=O)CC4)s3)n2)c1 [Compound A-442, 1-(4-{5-[6-(4-methoxypyridin-2-ylamino)pyridin-2-yl]thiazol-2-yl}piperazin-1-yl)ethanone]	–
–	–	100 to 1000	> 1000	Cc1ccnc(Nc2cccc(-c3cnc([C@@H](N)Cc4ccc(N)cc4)s3)n2)c1 [Compound A-180]	–
–	–	< 100	100 to 1000	CC(=O)c1ncc(-c2cccc(Nc3cc(C)ccn3)n2)s1 [Compound A-27, 1-{5-[6-(4-methylpyridin-2-ylamino)pyridin-2-yl]thiazol-2-yl}ethanone]	–
–	–	100 to 1000	100 to 1000	CC(=O)N1CCC(Cc2ncc(-c3cccc(Nc4cc(C)ccn4)n3)s2)CC1 [Compound A-328]	–
